# Measurements: the supplement of paper PMC6045584
# ± gives the standard deviation of the averaged measurements.
# Columns and labels:
# TIOGUANINE [1] = compound: T1, Nc1nc2[nH]cnc2c(=S)[nH]1 [TIOGUANINE]; assay: area under dose-response curve of surviving fraction (unscaled, Aref=0) (surviving fraction x log10(nM)); higher = more resistant; details: exposure time: 5 days; dose range 0.5-1000 nM
# Method in brief: (§1)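 Three screens per tumour cell line were run in 384-well plates at eight inhibitor concentrations from 0.5 to 1000 nM over five days. Surviving fractions, from CellTiter-Glo luminescence normalised to DMSO-only wells, were fitted with 3-parameter logistic curves in the drc R package. The reported area under the curve is the unscaled activity area. It spans log10 dose, and Aref is 0.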
# MDV3100 [2] = compound: T2, CNC(=O)c1ccc(N2C(=S)N(c3ccc(C#N)c(C(F)(F)F)c3)C(=O)C2(C)C)cc1F [MDV3100]; assay: as above; details: exposure time: 5 days; dose range 0.5-1000 nM
# Method in brief: as §1
# CANERTINIB [3] = compound: T3, C=CC(=O)Nc1cc2c(Nc3ccc(F)c(Cl)c3)ncnc2cc1OCCCN1CCOCC1 [CANERTINIB]; assay: as above; details: exposure time: 5 days; dose range 0.5-1000 nM
# Method in brief: as §1
# BI-2536 [4] = compound: T4, CC[C@@H]1C(=O)N(C)c2cnc(Nc3ccc(C(=O)NC4CCN(C)CC4)cc3OC)nc2N1C1CCCC1 [BI-2536]; assay: as above; details: exposure time: 5 days; dose range 0.5-1000 nM
# Method in brief: as §1
# SNX-5422 [5] = compound: T5, CC1(C)CC(=O)c2c(C(F)(F)F)nn(-c3ccc(C(N)=O)c(N[C@H]4CC[C@H](OC(=O)CN)CC4)c3)c2C1 [SNX-5422]; assay: as above; details: exposure time: 5 days; dose range 0.5-1000 nM
# Method in brief: as §1
# [6] = compound: Cn1cc(C2=Nc3cc(NC(=O)C(N)C4CCCCC4)cc4c3C2=CNNC4=O)cn1; assay: as above; details: exposure time: 5 days; dose range 0.5-1000 nM
# Method in brief: as §1
# AFATINIB [7] = compound: T6, CN(C)C/C=C/C(=O)Nc1cc2c(Nc3ccc(F)c(Cl)c3)ncnc2cc1O[C@H]1CCOC1 [AFATINIB]; assay: as above; details: exposure time: 5 days; dose range 0.5-1000 nM
# Method in brief: as §1
# SAPACITABINE [8] = compound: T7, CCCCCCCCCCCCCCCC(=O)Nc1ccn([C@@H]2O[C@H](CO)[C@@H](O)[C@@H]2C#N)c(=O)n1 [SAPACITABINE]; assay: as above; details: exposure time: 5 days; dose range 0.5-1000 nM
# Method in brief: as §1
# TIOGUANINE [9] = compound: T1, TIOGUANINE; assay: surviving fraction relative to DMSO-only wells; higher = less growth inhibition; details: exposure time: 5 days
# Method in brief: (§2)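 Viability was scored with CellTiter-Glo luminescence and normalised to the median of DMSO-only wells as surviving fraction. Beforehand, log-phase tumour cell lines were seeded at 250–500 cells per well in 384-well plates, allowed 24 hours, and exposed continuously for five days to inhibitors at 0.5, 1, 5, 10, 50, 100, 500 and 1000 nM. Only lines whose three screens gave replicate Pearson r >0.7 and median Z' >0.3 were kept.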
# MDV3100 [10] = compound: T2, MDV3100; assay: as above; details: exposure time: 5 days
# Method in brief: as §2
# CANERTINIB [11] = compound: T3, CANERTINIB; assay: as above; details: exposure time: 5 days
# Method in brief: as §2
# BI-2536 [12] = compound: T4, BI-2536; assay: as above; details: exposure time: 5 days
# Method in brief: as §2
# SNX-5422 [13] = compound: T5, SNX-5422; assay: as above; details: exposure time: 5 days
# Method in brief: as §2
# [14] = compound: Cn1cc(C2=Nc3cc(NC(=O)C(N)C4CCCCC4)cc4c3C2=CNNC4=O)cn1; assay: as above; details: exposure time: 5 days
# Method in brief: as §2
# AFATINIB [15] = compound: T6, AFATINIB; assay: as above; details: exposure time: 5 days
# Method in brief: as §2
# SAPACITABINE [16] = compound: T7, SAPACITABINE; assay: as above; details: exposure time: 5 days
# Method in brief: as §2
test system,measurement,setting,value
YAMATO SYNOVIAL,area under dose-response curve,TIOGUANINE [1],4.3
same,area under dose-response curve,MDV3100 [2],2.85
same,area under dose-response curve,CANERTINIB [3],3.14
same,area under dose-response curve,BI-2536 [4],1.27
same,area under dose-response curve,SNX-5422 [5],2.53
same,area under dose-response curve,[6],2.58
same,area under dose-response curve,AFATINIB [7],4.09
same,area under dose-response curve,SAPACITABINE [8],1.68
same,surviving fraction,TIOGUANINE [9]; 0.5 nM,1.31 ± 0.071
same,surviving fraction,TIOGUANINE [9]; 1 nM,1.21 ± 0.046
same,surviving fraction,TIOGUANINE [9]; 5 nM,1.32 ± 0.052
same,surviving fraction,TIOGUANINE [9]; 10 nM,1.35 ± 0.11
same,surviving fraction,TIOGUANINE [9]; 50 nM,1.36 ± 0.17
same,surviving fraction,TIOGUANINE [9]; 100 nM,1.37 ± 0.06
same,surviving fraction,TIOGUANINE [9]; 500 nM,1.24 ± 0.092
same,surviving fraction,TIOGUANINE [9]; 1000 nM,1.06 ± 0.066
same,surviving fraction,MDV3100 [10]; 0.5 nM,1.12 ± 0.074
same,surviving fraction,MDV3100 [10]; 1 nM,0.741 ± 0.028
same,surviving fraction,MDV3100 [10]; 5 nM,1.08 ± 0.076
same,surviving fraction,MDV3100 [10]; 10 nM,0.241 ± 0.015
same,surviving fraction,MDV3100 [10]; 50 nM,1.22 ± 0.12
same,surviving fraction,MDV3100 [10]; 100 nM,0.977 ± 0.081
same,surviving fraction,MDV3100 [10]; 500 nM,1.15 ± 0.053
same,surviving fraction,MDV3100 [10]; 1000 nM,0.352 ± 0.018
same,surviving fraction,CANERTINIB [11]; 0.5 nM,0.878 ± 0.19
same,surviving fraction,CANERTINIB [11]; 1 nM,0.857 ± 0.088
same,surviving fraction,CANERTINIB [11]; 5 nM,0.909 ± 0.065
same,surviving fraction,CANERTINIB [11]; 10 nM,0.938 ± 0.091
same,surviving fraction,CANERTINIB [11]; 50 nM,1.27 ± 0.1
same,surviving fraction,CANERTINIB [11]; 100 nM,1.28 ± 0.067
same,surviving fraction,CANERTINIB [11]; 500 nM,1.06 ± 0.083
same,surviving fraction,CANERTINIB [11]; 1000 nM,1.1 ± 0.074
same,surviving fraction,BI-2536 [12]; 0.5 nM,1.05 ± 0.061
same,surviving fraction,BI-2536 [12]; 1 nM,0.888 ± 0.05
same,surviving fraction,BI-2536 [12]; 5 nM,0.345 ± 0.0062
same,surviving fraction,BI-2536 [12]; 10 nM,0.315 ± 0.0095
same,surviving fraction,BI-2536 [12]; 50 nM,0.324 ± 0.013
same,surviving fraction,BI-2536 [12]; 100 nM,0.256 ± 0.014
same,surviving fraction,BI-2536 [12]; 500 nM,0.279 ± 0.018
same,surviving fraction,BI-2536 [12]; 1000 nM,0.336 ± 0.027
same,surviving fraction,SNX-5422 [13]; 0.5 nM,1.2 ± 0.21
same,surviving fraction,SNX-5422 [13]; 1 nM,1.15 ± 0.13
same,surviving fraction,SNX-5422 [13]; 5 nM,1.23 ± 0.096
same,surviving fraction,SNX-5422 [13]; 10 nM,1.17 ± 0.086
same,surviving fraction,SNX-5422 [13]; 50 nM,0.971 ± 0.21
same,surviving fraction,SNX-5422 [13]; 100 nM,0.339 ± 0.031
same,surviving fraction,SNX-5422 [13]; 500 nM,0.318 ± 0.028
same,surviving fraction,SNX-5422 [13]; 1000 nM,0.382 ± 0.031
same,surviving fraction,[14]; 0.5 nM,1.32 ± 0.11
same,surviving fraction,[14]; 1 nM,1.28 ± 0.16
same,surviving fraction,[14]; 5 nM,1.32 ± 0.093
same,surviving fraction,[14]; 10 nM,1.33 ± 0.12
same,surviving fraction,[14]; 50 nM,0.8 ± 0.032
same,surviving fraction,[14]; 100 nM,0.682 ± 0.077
same,surviving fraction,[14]; 500 nM,0.285 ± 0.011
same,surviving fraction,[14]; 1000 nM,0.258 ± 0.017
same,surviving fraction,AFATINIB [15]; 0.5 nM,1.22 ± 0.061
same,surviving fraction,AFATINIB [15]; 1 nM,1.34 ± 0.096
same,surviving fraction,AFATINIB [15]; 5 nM,1.32 ± 0.15
same,surviving fraction,AFATINIB [15]; 10 nM,1.18 ± 0.0093
same,surviving fraction,AFATINIB [15]; 50 nM,1.23 ± 0.037
same,surviving fraction,AFATINIB [15]; 100 nM,1.27 ± 0.07
same,surviving fraction,AFATINIB [15]; 500 nM,1.16 ± 0.035
same,surviving fraction,AFATINIB [15]; 1000 nM,0.739 ± 0.02
same,surviving fraction,SAPACITABINE [16]; 0.5 nM,0.776 ± 0.044
same,surviving fraction,SAPACITABINE [16]; 1 nM,0.446 ± 0.029
same,surviving fraction,SAPACITABINE [16]; 5 nM,0.684 ± 0.053
same,surviving fraction,SAPACITABINE [16]; 10 nM,0.11 ± 0.0083
same,surviving fraction,SAPACITABINE [16]; 50 nM,1.04 ± 0.062
same,surviving fraction,SAPACITABINE [16]; 100 nM,0.511 ± 0.021
same,surviving fraction,SAPACITABINE [16]; 500 nM,0.402 ± 0.01
same,surviving fraction,SAPACITABINE [16]; 1000 nM,0.0903 ± 0.0049
